# Assay results as given in patent publication US20030170643A1, “Regulation of apoB treatment and drug screening for cardiovascular and metabolic disorders or syndromes” (priority 1999, published 2003).
# Assays:
# Type in all cases: cell-based
# rat primary hepatocytes [1] = assay: Nascent VLDL re-uptake: VLDL-apoprotein secretion with or without heparin
# Procedure: FIG. 9 illustrates that DHA inhibits the secretion of newly synthesized VLDL-apoproteins even when re-uptake is blocked. Rat primary hepatocytes were treated as in FIG. 1, except that media in the indicated wells also was supplemented with heparin (10 mg/ml). Total labeled VLDL-apoproteins were determined as in FIG. 3. The results for the fatty acids are expressed relative to the corresponding result for BSA and are shown as mean ±SE (n=6).
# To evaluate whether there were differential effects of fish oil fatty acids and OA on the re-uptake of newly synthesized VLDL, an experimental design identical to that described above was employed, except heparin (0.1 mg/ml or 10 mg/ml) was added to the treatment media to block LDL receptor-dependent and proteoglycan-mediated re-uptake (Williams, K. J., Fless, G. M., Petrie, K. A., Snyder, M. L., Brocia, R. W., and Swenson, T. L. (1992) J Biol Chem 267(19), 13284-92). Control experiments were performed showing that the flotation properties of VLDL were unchanged in the presence of heparin.
# The concentration of heparin was 10 mg/ml, which blocks lipoprotein binding to both LDL receptors and HSPGs (Williams, K. J. et al. (1992) J Biol Chem 267(19), 13284-92, and citations therein). […] Thus, there is substantial re-uptake of nascent VLDL by primary hepatocytes in the presence of either fatty acid. […] Thus, re-uptake of newly exported apoB cannot explain the effect of Ω-3 fatty acids on lipoprotein secretion.
# rat primary hepatocytes [2] = assay: Secretion of newly synthesized ([35S]methionine-labeled) VLDL-apoproteins by rat primary hepatocytes incubated with fatty acid/BSA complexes; conditions: fatty acid/BSA complexes (0.8 mM FA), VLDL fraction
# Procedure: Cells were plated at a density of 2×10^6 cells/ml on 60-mm culture dishes (previously coated with poly-D-lysine) in modified M199 medium (M199, 1% fetal bovine serum [FBS], 1 mM nicotinamide, 0.1 nM insulin, 3 mg/ml choline, 1.1% L-glutamine, 1% BSA). After a four-hour attachment period, the medium was changed (modified M199 identical to the above except BSA was omitted and the concentration of FBS was raised to 10%). The next morning, cells were washed in serum-free medium three times, the experimental media added, and the cells incubated at 37° C. for 4-6 hours. The experimental medium consisted of serum-free RPMI containing the appropriate isotopes (see below) and fatty acids (FA) present at a final concentration of 0.8 mM complexed to BSA (FA:BSA molar ratio=5:1). The fatty acids used were oleic (OA), EPA, and DHA. Control medium was identical, except that BSA (0.16 mM) without fatty acids was present. For metabolic labeling of proteins, [^35S]methionine (70 uCi/ml) was included in the experimental media.
# Following the 4-6 hour incubation period, the cell monolayer was washed, then solubilized in 0.1 M NaOH, and the cell protein determined by the Lowry method (Lowry, O. H., Rosebrough, N. J., Farr, A. L., and Randall, R. J. (1951) J Biol Chem 193, 265-75). Each 60 mm dish contained approximately 1-1.5 mg of cell protein. The secreted apoproteins were isolated from the medium either by ultracentrifugation or immunoprecipitation. To isolate the d<1.006 (VLDL) and 1.006<d<1.063 (IDL and LDL) g/ml density classes by centrifugation, sequential 20 hour runs at 48,000 rpm in a 50 Ti Beckman rotor at 4° C. were performed. After the first run at d=1.006, the upper VLDL layer was harvested and the density of the infranatant adjusted to 1.066 g/ml with solid KBr. After being overlaid with a KBr solution of density 1.063, the adjusted infranatant was re-centrifuged as before to isolate the IDL and LDL fractions. In some experiments, the HDL fraction (1.063<d<1.21) was isolated by sequential density centrifugation. Lipoprotein fractions were then dialyzed against 0.9% NaCl containing 10 mM unlabeled methionine, 0.2 mM PMSF, and 2 mM EDTA. Dialyzed lipoproteins were delipidated using 9 volumes of 100% isopropanol. Apoproteins were then collected by centrifugation in a Sorval HB-4 rotor at 10,000 rpm and 4° C. for 20 min, and dissolved in buffer (0.01 M phosphate, pH 7,1 % SDS, 10% glycerol), in preparation for electrophoresis.
# To immunoprecipitate apoB or apoE from unfractionated conditioned medium, monospecific rabbit antiserum to rat apoB or apoE was used. Briefly, an aliquot of the medium was mixed with an equal volume of diluted antiserum (1:100 in PBS and 1% BSA) and incubated overnight at 4° C. Staph A was added in the form of immunoprecipitin, and the resultant precipitate containing the immune complexes was washed extensively, the staph A cells removed, and the isolated apoprotein dissolved in gel sample buffer (0.0625M tris/Cl, pH 6.8, 20% glycerol, 2% SDS). Electrophoretic separation of apoVLDL, apoIDL/LDL, and immunoprecipitates was accomplished using 3.5% acrylamide-18% glycerol gels as described (Maguire, G. F., Lee, M., and Connelly, P. W. (1989) J Lipid Res 30, 757-61). An aliquot of each sample was taken for scintillation counting, so that total radioactivity applied to each lane could be determined. Also, protein size standards were included in each gel.
# After electrophoresis, the gels were stained, fixed, soaked in Enhance fluor solution, and dried following protocols supplied by the manufacturer. Dried gels were then exposed to X-ray film at −70° C. and signals on the resulting fluorograms were typically quantified by densitometry or phosphorimaging. Using the total radioactivity applied to each lane of the gel and the relative signal intensity of each band in that lane, the radioactivity associated with each apoprotein species was calculated. […]
# rat primary hepatocytes [3] = assay: Basal apoB100 degradation (pulse-chase recovery) in rat primary hepatocytes; conditions: FIG. 16A
# rat hepatoma cells [4] = assay: Pulse-chase recovery of [35S]-apoB100 (apoB100 degradation) in rat hepatoma cells; conditions: co-treatment with DHA, FIG. 13A and 13B
# Procedure: (§1) FIG. 13 illustrates that either an iron chelator (DFX) or lipid antioxidants block DHA-stimulated apoB degradation and reactive oxygen species (ROS) production. Rat hepatoma cells were plated in culture wells and pre-incubated in media containing either DHA or DHA with one of the indicated compounds. Radiolabeled methionine/cysteine was added to the culture media for 15 minutes, after which time, the culture media were replaced by fresh media identical in composition except that radiolabeled methionine/cysteine were replaced by unlabeled methionone/cysteine. The recovery of labeled apoB100 ([^35S]-apoB100) from the media and cell lysate was determined at the indicated time points (with time 0 being the point when the fresh media were applied to the cells) by immunoprecipitating apoB species with a rabbit polyclonal antibody to rat apoB, resuspending the immunoprecipitates, combining aliquots from cell lysate and media samples from each well, resolving the protein contents of the combined immunoprecipitates by SDS-polyacrylamide gel electrophoresis (SDS-PAGE), and exposing the resultant gels to X-ray film in order to visualize the labeled apoB bands. In panel A are shown representative signals for radiolabeled apoB100 in each of the treatment conditions. […] For each treatment, there were at least 2 wells/treatment for each time point and the entire experiment repeated. The signal intensities of the apoB100 bands were quantified by densitometry and the mean relative recoveries (the % of the 15 minute, or initial, value still remaining at 120 minutes) ±SEM are shown in panel B. Note that the visual impressions observable in panel A are confirmed by the quantitative analysis; i.e., there is a substantial increase in labeled apoB100 recovery with any of the co-treatments. In panel C, the ROS content of the cell lysates at the end of the experiment was measured by the standard TBARS assay (Stocks et al., 1974, Clin Sci Mol Med 47,215-222). Note that compared to control (BSA), DHA induced a large increase in TBARS, as expected because of its high content on unsaturated bonds.
# FIG. 14 illustrates that DHA, but not saturated MA, induces apoB100 degradation in rat hepatoma cells. An experiment similar to the one described in FIG. 13 was performed, with the following changes: A) The immunoprecipitates from cell lysate and media samples were not combined, but separately analyzed. B) In addition to the 15 and 120 minute time points, apoB recovery was determined at 30 minutes. C) In addition to DHA, the effects of the fatty acid myristic (MA) were also tested because it has no unsaturated bonds and should not give rise to ROS.
# FIG. 15 illustrates that AA stimulates apoB100 degradation and increases ROS. […] Note in the upper panel that the combined recovery (from two separate wells/time point) of radiolabeled apoB100 decreased from 15 to 120 minutes, indicating significant apoB100 degradation had occurred in the presence of AA. […] In addition to being a source of ROS, AA can also be converted by cyclooxygenase (COX) to bioactive prostaglandin compounds. We therefore repeated the experiment with AA but with co-treatment by the COX inhibitor aspirin.
# To further explore the underlying mechanisms, rat hepatoma cells or primary hepatocytes were incubated with the Ω-3 fatty acid DHA complexed to BSA, while blocking candidate cellular mediators. […] There was, however, strong evidence against a role for calcium. Chelation of intracellular Ca^++ with BAPTA-AM, pharmacologic blockage of Ca^++ channels, depletion of the ER-calcium pool, and increasing Ca++ influx with an ionophore each had no effect. Because EGTA also chelates Fe^+++, and DHA is subject to Fe^+++-dependent peroxidation, the role of this lipid modification was examined. As shown in FIG. 13A and 13B, Desferroxamine (DFX), a chelator of Fe^+++, the antioxidant vitamin E (Vit E), and the synthetic antioxidant BHT, each inhibited DHA-stimulated apoB100 degradation by ˜60%.
# rat primary hepatocytes [5] = assay: TBARS assay of ROS in rat primary hepatocytes; conditions: FIG. 16B
# rat hepatoma cells [6] = assay: TBARS assay of ROS in cell lysates of rat hepatoma cells; conditions: co-treatment with DHA, FIG. 13C
# Procedure: as §1, with “bonds. […] FIG. 15 illustrates that AA stimulates apoB100 degradation and increases ROS. […] Note in the upper panel that the combined recovery (from two separate wells/time point) of radiolabeled apoB100 decreased from 15 to 120 minutes, indicating significant apoB100 degradation had occurred in the presence of AA. […] In addition to being a source of ROS, AA can also be converted by cyclooxygenase (COX) to bioactive prostaglandin compounds. We therefore repeated the experiment with AA but with co-treatment by the COX inhibitor aspirin.” for “bonds.”
# McArdle RH-7777 cells = assay: Secretion of labeled apoB and apoE by McArdle RH-7777 cells after MTP inhibition; conditions: rat hepatoma cells, 4 hr, MTP inhibitor
# Procedure: FIG. 7 illustrates that inhibition of MTP reduces the secretion of newly synthesized apoB100 without affecting apoE. Rat McA hepatoma cells were incubated at 37 °C for 4 hr with [ ^35S]methionine in the absence (Control) or presence (MTPI) of an inhibitor of MTP activity. Equal aliquots of the conditioned media samples from duplicate wells were subjected to separate immunoprecipitations with anti-apoB or anti-apoE antiserum. For each well, the resulting pellets from the two immunoprecipitations were combined and analyzed by SDS-PAGE and fluorography.
# To determine the differential effects of MTP inhibition on the secretion of labeled apoB and apoE, in some experiments, McArdle RH-7777 cells were pre-treated for 30 min with MTP inhibitor BMS-200150 ([…] dissolved in DMSO; (Jamil, H., Gordon, D. A., Eustice, D. C., Brooks, C. M., Dickson, J. K., Jr., Chen, Y., Ricci, B., Chu, C.-H., Harrity, T. W., Ciosek, C. P., Jr., Biller, S. A., Gregg, R. E., and Wetterau, J. R. (1996) Proc Natl Acad Sci USA 93, 11991-11995)) or DMSO alone (final concentration 0.5%) before adding radiolabel. The cells were further incubated for 4 hr and the conditioned media contents of apoB and apoE determined by immunoprecipitation and SDS-PAGE analysis as described above.
compound,measurement,setting,value
"CC/C=C\C/C=C\C/C=C\C/C=C\C/C=C\C/C=C\CCC(=O)O [DHA, docosahexaenoic acid]","secretion of VLDL apoproteins, % of the OA control",rat primary hepatocytes [1]; independent of heparin treatment (10 mg/ml),approximately 50%
same,"secretion of newly synthesized VLDL-ApoB48, percentage of secretion observed with BSA alone",rat primary hepatocytes [2],39 ± 3 percentage
same,"secretion of newly synthesized VLDL-ApoB100, percentage of secretion observed with BSA alone",rat primary hepatocytes [2],24 ± 3 percentage
same,"secretion of newly synthesized VLDL-ApoE, percentage of secretion observed with BSA alone",rat primary hepatocytes [2],53 ± 2 percentage
heparin,apoB output in the presence of either fatty acid,rat primary hepatocytes [1]; heparin 0.1 mg/ml,failed to increase
same,net secretion of newly synthesized VLDL-apoproteins during treatment with either OA or DHA,"rat primary hepatocytes [1]; heparin 10 mg/ml, P<0.01",approximately two-fold
"CC(=O)N(O)CCCCCNC(=O)CCC(=O)N(O)CCCCCNC(=O)CCC(=O)N(O)CCCCCN [DFX, desferrioxamine]",basal level of apoB degradation,rat primary hepatocytes [3],essentially reversed
same,inhibition of DHA-stimulated apoB100 degradation,rat hepatoma cells [4],~60%
same,ROS level (TBARS),rat primary hepatocytes [5],reduced
same,"DHA-increased ROS, TBARS assay, with co-treatment",rat hepatoma cells [6],reduced
O=C1c2ccccc2CN1C1CCN(CCC(c2ccccc2)c2ccccc2)CC1 [BMS compound #200150],secretion of newly synthesized apoB100,McArdle RH-7777 cells,almost completely abolished
same,secretion of newly synthesized apoE,McArdle RH-7777 cells,no significant effect
